Calls of active or inactive are those of the source. No rule for the calls is given here.
Target: Perilipin-1 (Homo sapiens) (UniProt O60240)
Experiment: inhibitors of ABHD5-PLIN1 binding, dose response, counter-screen for ABHD5-PLIN5 interaction inhibitor project, biochemical, luminescence (AID 651672);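 also: split Gaussia luciferase complementation between ABHD5 and PLIN1 fusion fragments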

Sequence of Perilipin-1 (Homo sapiens) (O60240 whole entry, looked up, the tested form may be a part): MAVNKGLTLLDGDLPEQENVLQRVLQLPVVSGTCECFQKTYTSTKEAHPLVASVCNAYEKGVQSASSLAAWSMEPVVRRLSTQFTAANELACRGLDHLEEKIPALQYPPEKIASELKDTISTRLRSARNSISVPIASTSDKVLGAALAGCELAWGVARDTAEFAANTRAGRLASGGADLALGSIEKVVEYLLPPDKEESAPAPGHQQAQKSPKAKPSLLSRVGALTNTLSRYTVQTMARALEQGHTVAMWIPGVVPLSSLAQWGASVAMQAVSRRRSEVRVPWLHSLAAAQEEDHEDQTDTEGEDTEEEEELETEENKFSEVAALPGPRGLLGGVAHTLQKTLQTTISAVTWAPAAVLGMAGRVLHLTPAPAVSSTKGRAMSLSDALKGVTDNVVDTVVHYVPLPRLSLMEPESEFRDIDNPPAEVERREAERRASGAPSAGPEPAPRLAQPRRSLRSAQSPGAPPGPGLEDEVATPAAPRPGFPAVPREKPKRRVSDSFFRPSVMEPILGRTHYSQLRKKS

Compound	IC50
N#Cc1ccc(C(C(=O)NCc2ccccc2)n2c(=O)c(-c3ccco3)nc3ccccc32)cc1 (stereo not given)	1700 nM
Cc1ccc(O)c(C(=O)/C=C/c2ccc3c(c2)OCCCO3)c1	4630 nM
Cc1ccc(/C=C/C(=O)c2cc(Br)ccc2OC(=O)c2ccco2)cc1	684 nM
CCCCCNC(=O)C(c1ccc(C(F)(F)F)cc1)n1c(=O)c(-c2ccco2)nc2ccccc21 (stereo not given)	2910 nM
CN(C)CCOc1ccc(/C(=C(/CCCl)c2ccccc2)c2ccccc2)cc1	1140 nM
Cc1cccc(C)c1NC(=O)C(c1cccc2ccccc12)n1c(=O)c(-c2ccco2)nc2ccccc21 (stereo not given)	2400 nM
FC(F)(F)c1cccc(NC(=S)N(CCCN2CCCC2)Cc2cccn2Cc2ccc(Cl)cc2)c1	inactive
COc1ccc(C)c2sc(N(CCN(C)C)C(=O)/C=C/c3cccs3)nc12	inactive
CCOC1=CC2=C(C(=O)C(Cl)=CC2=O)[C@@H]2CN(S(=O)(=O)c3ccc(C)cc3)[C@@H](c3ccccc3)[C@H]12	1350 nM
Cc1ccc(/C(O)=C2/C(=O)C(=O)OC2c2ccc(Cl)cc2)cc1 (stereo not given)	9380 nM
O=C(/C=C/Sc1ccccc1)c1ccc(Cl)cc1	3810 nM
CCCCC(=O)NC(c1cccc([N+](=O)[O-])c1)c1ccc2cccnc2c1O (stereo not given)	inactive
COC(=O)c1cc(=O)n(Cc2ccco2)c(=Nc2ccc(F)cc2)s1	3190 nM
CCN(CC)CCC(C)OC(c1ccccc1)c1ccccc1 (stereo not given)	2600 nM
CSc1nnc(NC(=O)c2nc(S(=O)(=O)Cc3cccc(C)c3)ncc2Cl)s1	2700 nM
COc1ccc(/C=C/C(=O)c2cc(F)ccc2OC(=O)c2ccc(OC)c(OC)c2)cc1OC	2440 nM
Cc1cccc(NC(=O)CSc2nnc(-c3ccco3)c(-c3ccco3)n2)c1	1920 nM
COc1ccc(C(C(=O)Nc2c(C)cccc2C)n2c(=O)c(-c3ccco3)nc3ccccc32)cc1 (stereo not given)	1880 nM
CC(C)(C)NC(=O)C(c1ccc(C(F)(F)F)cc1)n1c(=O)c(-c2ccco2)nc2ccccc21 (stereo not given)	2690 nM
CCN1C/C(=C/c2ccc(OC)c(O)c2)C(=O)/C(=C/c2ccc(OC)c(O)c2)C1	7540 nM
CCCCCNC(=O)C(c1cccc2ccccc12)n1c(=O)c(-c2ccco2)nc2ccccc21 (stereo not given)	2010 nM
COc1ccccc1C=CC(=O)C=Cc1ccccc1OC	5340 nM
Cc1cccc(C)c1NC(=O)C(c1ccnc2ccccc12)n1c(=O)c(-c2ccco2)nc2ccccc21 (stereo not given)	3320 nM
CCCCCNC(=O)C(c1ccccc1F)n1c(=O)c(-c2ccco2)nc2ccccc21 (stereo not given)	1090 nM
CCOC(=O)c1c(NC(C)=O)sc2c1CCC(C=O)=C2Sc1ccccc1	3110 nM

Compound	IC50
CN(C)CCCNC(=O)c1ccc(-c2nc(-c3ccc(Cl)cc3)cs2)cc1	inactive
O=c1[nH]c(C2CCN(S(=O)(=O)c3ccc(F)cc3)CC2)nc2c1nnn2Cc1ccc2c(c1)OCCO2	inactive
Cc1ccc(NC(=O)CSc2nnc(-c3ccco3)c(-c3ccco3)n2)cc1	2660 nM
CC(C)(C)NC(=O)C(c1ccnc2ccccc12)n1c(=O)c(-c2ccco2)nc2ccccc21 (stereo not given)	4290 nM
CCN1/C(=C/C=C/c2oc3ccc(-c4ccccc4)cc3[n+]2CC)Oc2ccc(-c3ccccc3)cc21	1240 nM
Cc1nnc(NC(=O)c2nc(S(=O)(=O)Cc3ccccc3C)ncc2Cl)s1	3920 nM
Cc1cccc(C)c1NC(=O)C(c1ccc(C#N)cc1)n1c(=O)c(-c2ccco2)nc2ccccc21 (stereo not given)	2660 nM
CCOC(=O)c1c(NC(=O)/C=C/C(=O)O)sc(C)c1-c1ccc(C(C)(C)C)cc1	4810 nM
COc1ccccc1-c1cc(C(=O)NC2CCN(C)CC2)c2ccc(Cl)c(C)c2n1	inactive
COc1cc(/C=C/C(=O)c2ccc(Cl)s2)cc(OC)c1O	4590 nM
O=C1NC(=S)NC(=O)C12C(c1ccccc1)NC(=S)NC2c1ccccc1 (stereo not given)	4340 nM
O=c1nc(/C=C/c2ccc(Cl)cc2Cl)cc(C(F)(F)F)[nH]1	2940 nM
N#Cc1ncc(Cc2ccccc2)nc1C#N	inactive
CCC1(C)N=C(c2ccc3c(c2)OCO3)CC(c2ccccc2O)N1 (stereo not given)	1060 nM
O=C1CC(c2ccc(Cl)cc2)Oc2ccc(Cl)cc21 (stereo not given)	2950 nM
CC(C)(C)NC(=O)C(c1ccc(-c2ccccc2)cc1)n1c(=O)c(-c2ccco2)nc2ccccc21 (stereo not given)	1670 nM
CCN(CC)CCOc1ccc(/C(=C(\Cl)c2ccccc2)c2ccccc2)cc1	2230 nM
CC(=O)Oc1c(Cl)cc(N(C(C)=O)S(=O)(=O)c2ccccc2)c2ccccc12	3880 nM
CCCNC(=O)Nc1ccc2c(c1)N(C)C(=O)c1ccccc1S2	4980 nM
COC/C=C/C1=CC2=CC(=O)C(C)(OC(=O)C3CCCC3)C(=O)C2=CO1 (stereo not given)	2450 nM
CC1CN(Cc2c(O)ccc3c2oc(=O)c2ccccc23)CC(C)O1 (stereo not given)	2920 nM
COC(=O)c1cc(=O)n(-c2ccc(F)cc2)c(=Nc2ccc(F)cc2)s1	2500 nM
N#Cc1ccccc1OCc1cn(CC(=O)c2ccc(O)cc2)nn1	4120 nM
CN(C)c1ccc(Cc2cc3c(O)ccc(O)c3cc(Cc3ccc(N(C)C)cc3)c2=O)cc1	2400 nM
CCOC(=O)c1c(C)oc2c1c(CN1CCN(CCO)CC1)c(O)c1ccccc12	1810 nM

Compound	IC50
COc1cc(OC)cc(C(=O)NC(=S)N(Cc2ccccc2)C(C)C)c1	inactive
Cc1cc(C)c(NC(=O)C[N+](C)(C)CC(O)COc2cccc3ccccc23)c(C)c1 (stereo not given)	7990 nM
Cc1ccc2sc(N(CCCN(C)C)C(=O)CN3C(=O)c4ccccc4C3=O)nc2c1C	inactive
O=C(Nc1ccc(Cl)cc1)/C(=C/c1cccc(O)c1)c1nc2ccccc2s1	1680 nM
CCSc1ccc2c(c1)N(CCCN1CCN(C)CC1)c1ccccc1S2	6350 nM
CN(C)CCOc1ccc(-c2c(-c3ccccc3)sc3ccccc23)cc1	inactive
Cc1ccc(S(=O)(=O)N2C[C@@]3(O)Cn4c(=O)ccc(=O)n4C[C@@]3(OC(=O)NCC3CCCCC3)C2)cc1	6220 nM
COc1cc2c(cc1OC)C(C)N(CCc1ccc(Cl)cc1)CC2 (stereo not given)	inactive
COc1ccc(NC(=O)C(c2ccccc2)n2c(=O)c(-c3ccco3)nc3ccccc32)cc1 (stereo not given)	8470 nM
CC1=CC2C(C(O)CC3(C)C2CC(C)C32OCOC23COCO3)C2(C)C/C(=C\O)C(=O)C=C12 (stereo not given)	3510 nM
O=C(COc1ccccc1Cl)Nc1ccc(N2CCCC2)cc1	> 39900 nM (inactive)
COc1ccc(/C=C\C(=O)CC(O)(c2ccccc2)C(F)(F)F)cc1 (stereo not given)	2680 nM
CN1[C@@H]2CC[C@H]1CC(OC1c3ccccc3CCc3ccccc31)C2 (stereo not given in full)	1920 nM
Cc1cccc(C)c1NC(=O)C(c1ccc(C(F)(F)F)cc1)n1c(=O)c(-c2ccco2)nc2ccccc21 (stereo not given)	2220 nM
CCC(=O)Nc1cccc(C(=O)/C=C/c2ccccc2)c1	1980 nM
O=C(/C(=C/O)N=Nc1ccc(Cl)cc1)c1ccncc1	7400 nM
CC(=O)Cc1cc(O)c2ccccc2c1OC(=O)c1ccccc1	2630 nM
COc1ccc(NC(=O)C(c2ccc(C#N)cc2)n2c(=O)c(-c3ccco3)nc3ccccc32)cc1 (stereo not given)	inactive
Cc1ccc2nc3cc([N+](=O)[O-])cc([N+](=O)[O-])c3cc2c1	801 nM
CCCc1nc(C)c2c(=O)[nH]c(-c3cc(S(=O)(=O)N4CCN(CC)CC4)ccc3OCC)nn12	2450 nM
CN1C(=O)/C(=C/C=C/c2ccco2)C(=O)NC1=S	5880 nM
Cc1nc2c(o1)CCc1ccccc1C2N1CCN(C)CC1 (stereo not given)	inactive
O=C(/C=C/c1ccccc1)CC(O)(c1ccccc1)C(F)(F)C(F)F (stereo not given)	821 nM
O=C(NCc1ccccc1)C(c1ccc(C(F)(F)F)cc1)n1c(=O)c(-c2ccco2)nc2ccccc21 (stereo not given)	1590 nM
CC(=O)Oc1c(Br)cc(N(C(C)=O)S(=O)(=O)c2ccccc2)c2ccccc12	8800 nM

Compound	IC50
CCc1nnc(NC(=O)c2nc(S(=O)(=O)Cc3cccc(C)c3)ncc2Cl)s1	3290 nM
CC(C)(C)NC(=O)C(c1cccc2ccccc12)n1c(=O)c(-c2ccco2)nc2ccccc21 (stereo not given)	2040 nM
CCC(c1nc2ccccc2[nH]1)n1c(=O)c(-c2ccco2)nc2ccccc21 (stereo not given)	3970 nM
C=C[C@]1(C)C[C@@H](OC(=O)CSCCN(CC)CC)[C@]2(C)C(C)CC[C@]3(CCC(=O)[C@H]32)[C@@H](C)[C@@H]1O (stereo not given in full)	inactive
COc1ccc(-c2cc(N)n(S(=O)(=O)c3c(F)c(F)c(F)c(F)c3F)n2)cc1OC	9950 nM
COc1ccc(NC(=O)C(c2ccnc3ccccc23)n2c(=O)c(-c3ccco3)nc3ccccc32)cc1 (stereo not given)	4760 nM
CCCCCNC(=O)C(c1ccc(C#N)cc1)n1c(=O)c(-c2ccco2)nc2ccccc21 (stereo not given)	2980 nM
CS(=O)(=O)c1ccc(C(=O)NCCN2C(=O)S/C(=C\c3cccnc3)C2=O)cc1[N+](=O)[O-]	5140 nM
O=c1[nH]c(C2CCN(S(=O)(=O)c3ccc(S(=O)(=O)NC4CC4)cc3)CC2)nc2c1nnn2Cc1ccc(F)cc1	3560 nM
CC(=O)Oc1ccc(C23c4ccccc4C2(OC(C)=O)c2cc(OC(C)=O)ccc23)cc1 (stereo not given)	581 nM
CCC(C(=O)OCCN(CC)CC)c1ccccc1 (stereo not given)	2530 nM
Cc1cccc(C)c1NC(=O)C(c1ccccc1F)n1c(=O)c(-c2ccco2)nc2ccccc21 (stereo not given)	2810 nM
CN1CCC[C@@H]1CCO[C@](C)(c1ccccc1)c1ccc(Cl)cc1	inactive
Cc1cccc(C)c1NC(=O)C(c1ccccc1)n1c(=O)c(-c2ccco2)nc2ccccc21 (stereo not given)	3370 nM
O=C(NCc1ccccc1)C(c1ccccc1)n1c(=O)c(-c2ccco2)nc2ccccc21 (stereo not given)	2500 nM
COc1ccc(C(C(=O)NCc2ccccc2)n2c(=O)c(-c3ccco3)nc3ccccc32)cc1 (stereo not given)	2170 nM
CCCCCNC(=O)C(c1ccc(OC)cc1)n1c(=O)c(-c2ccco2)nc2ccccc21 (stereo not given)	1410 nM
COc1ccc(C(C(=O)NC2CCCCC2)n2c(=O)c(-c3ccco3)nc3ccccc32)cc1 (stereo not given)	1270 nM
CCCCCNC(=O)C(C1CC1)n1c(=O)c(-c2ccco2)nc2ccccc21 (stereo not given)	6580 nM
C#CCN(C[C@@H]1[C@@H](OC(=O)Nc2cccs2)[C@@H](OC(=O)Nc2cccs2)Cn2c(=O)ccc(=O)n21)S(=O)(=O)c1ccc(C)cc1	2330 nM
CC(=O)Nc1ccc(OCc2cn(CC(=O)c3ccc(O)cc3)nn2)cc1	2470 nM
CC1=CC(C)(C)Nc2ccc(OC(=O)C(C)N3C(=O)c4ccccc4C3=O)cc21 (stereo not given)	1820 nM
CC(CCc1ccco1)NC(=O)CCc1nnc2ccc(NCc3ccccc3Cl)nn12 (stereo not given)	2030 nM
Cc1ccc(C(=O)c2coc3c2C(=O)C(=O)c2ccccc2-3)cc1	3880 nM
O=[N+]([O-])/C=C/c1cn(Cc2ccc(F)cc2)c2ccccc12	7460 nM

From PubChem BioAssay AID651672 (The Scripps Research Institute Molecular Screening Center, 2012)
